Experimental data published in US5383848A, “Iontophoretic administration of drugs” (Gensia, Inc., priority 1991, dated 1995).
Where “and” joins values, the source holds several entries; their conditions need not be identical. Equal entries are not always repeated. Entries after “also recorded” stand apart in the source; their conditions may differ.

Experiments:
[1] = Redness/irritation index of topical formulations on human volunteers (Example B); conditions: for Redness/irritation index, Mean: 7 subjects
Protocol: In these experiments data were collected from seven human volunteers concerning the effects of topical dermal clearance enhancers. […] Observations were recorded at 10, 20, and 30 minute intervals. The following redness/irritation index was used to categorize vasodilation/irritation:
0=no redness, i.e., erythema;
W=Wheal irritation, i.e., edemic core surrounded by an erythemic ring; and
The presence of vasodilation was determined by degree of redness of the skin. Wheal irritation was signified by the presence of an erythemic ring surrounding an upraised pale center. Whitening was denoted by a pale area with no upraising or redness.

elevated heart rate [2] = assay: In vivo dog experiments: heart rate offset after iontophoretic ESA drug with pretreatment (Example A); set-up: species or system labrador dogs; conditions: for Offset Slope Component (0-5) min: 0-5 min after heart rate begins to decline; for Offset Slope Component (5-10) min: 5-10 min after decline begins; for Offset Slope Component (10-30) min: 10-30 min after decline begins; for Change in Heart Rate (peak minus baseline) / Peak Heart Rate: Table II; for Onset Slope: baseline at onset time to peak heart rate; for Offset time: drug delivery stopped until within 20 bpm of baseline; for Offset Slope: drug shut-off to 20 bpm above baseline; for Delay: drug shut-off to start of heart rate decline; for t 1/2 of elevated heart rate decay: exponential fit; for Onset time: start of delivery to start of increase in heart rate; for Time Start Decline: time when elevated heart rate began to decline
elevated heart rate [3] = assay: Additional in vivo dog experiments: dermal clearance enhancer pretreatment then arbutamine TDI (Example C); set-up: species or system labrador dogs
Protocol: Additional experiments were performed to study the effect of certain compositions on the offset time and dermal clearance in dogs.
In these experiments, the formulation to be tested was applied either topically or by transdermal iontophoresis (TDI) as described below.
Six labrador dogs (20 to 30 kg) were trained to lie quietly on a table. Before each experiment, three ECG electrodes (one lead) were applied on shaved areas of the back (near the front legs) to obtain the heart rate. The outer hind leg area (either right or left) was shaved prior to each experiment, with care taken not to cut or visibly damage the skin. The area was cleaned with soap and water and the skin was then […] using an alcohol swab followed by skin preparation with 3M One-Step-Prep™ tape.
Each vasodilator that was delivered by TDI used a 1.8 cm^2 electrode (Graphic Controls, Buffalo, N.Y.) containing the vasodilator in a gel at the concentrations listed in experimental methods section. In all experiments, an indifferent electrode containing a phosphate-buffered-saline gel was applied to the skin in conjunction with the electrode containing the vasodilator. Each vasodilator tested was applied for 10 minutes using a current of 0.6 mA/cm^2. During this time the heart rate was continuously recorded (at 5 second intervals) with the ESA Research System. The delivery electrodes were then removed, and any excess gel adhering to the skin was gently removed using a tissue.
Each topically applied vasodilator was applied to the skin in a volume of approximately 0.25 ml. The agent was allowed to absorb into the skin, during which time the heart rate was continuously recorded for 10 minutes using the ESA Research System.
To test if heat alone would produce sufficient vasodilation, a 60° C. hot pack was applied to the skin 10 minutes prior to drug delivery, during which time the heat rate was continuously recorded by the ESA System. Once drug delivery electrodes were applied, the heat pack was reheated and placed on top of them for the duration of the study.
The purpose of this treatment was to produce an elevated heart rate response of at least 40 beats-per-minute above baseline lasting for at least 30 minutes.
^1/ The dose (ITCA) was calculated by multiplying the applied current density (mA/cm^2) by the duration of delivery (minutes) and the drug concentration (%) and the area of the electrode (cm^2). […] The units of ITCA are mA.minutes.
The important variables for this analysis are:
1) delay between time when drug administration was stopped and start of decline in heart rate;
2) the time (minutes) to reach successive percent levels (i.e. 10, 20, 30, 40, and 50% decline) from the point of maximum change in heart rate^2.
3) the half-life (minutes) of the heart rate decline obtained from an exponential fit of the offset slope.
A combination of over-the-counter (OTC) and proprietary formulations were selected for comparison. […] Two dogs received each treatment at least one time.
The six dogs are identified in the table as BA, BB, BO, MI, PO and SA, followed by the experimental identification number. These dogs received control (no pretreatment) and five DCE pretreatment regimens.

[4] = Table VII, single dog run, listed as 1% Tolazoline

COC(=O)c1ccccc1O [Methyl Salicylate, Methyl salicylate]
Redness/irritation index, Mean ([1]; 10 min): 0 | Redness/irritation index ([1]; 10 min, subject CV): 0 | Redness/irritation index ([1]; 10 min, subject four): 0 | Redness/irritation index ([1]; 10 min, subject one): 0 | Redness/irritation index ([1]; 10 min, subject three): 0 | Redness/irritation index ([1]; 10 min, subject two): 0 | Redness/irritation index, Mean ([1]; 20 min): 0 | Redness/irritation index ([1]; 20 min, subject CV): 0 | Redness/irritation index ([1]; 20 min, subject three): 0 | Redness/irritation index ([1]; 20 min, subject two): 0 | Redness/irritation index, Mean ([1]; 30 min): 0 | Redness/irritation index ([1]; 30 min, subject CV): 0 | Redness/irritation index ([1]; 30 min, subject three): 0 | Redness/irritation index ([1]; 30 min, subject two): 0

c1ccc(CC2=NCCN2)cc1 [Tolazoline]
Offset Slope Component (0-5) min (elevated heart rate [2]; listed as 5): -0.90 beats per minute per minute | Offset Slope Component (0-5) min (elevated heart rate [2]; listed as 6): -1.40 beats per minute per minute | Offset Slope Component (5-10) min (elevated heart rate [2]; listed as 5): -3.30 beats per minute per minute | Offset Slope Component (5-10) min (elevated heart rate [2]; listed as 6): -3.90 beats per minute per minute | Percent decline in heart rate, ranking (elevated heart rate [2]; 10-20 minute interval, FIG. 1): greatest percent decline | Offset Slope Component (10-30) min (elevated heart rate [2]; listed as 5): -0.70 beats per minute per minute | Offset Slope Component (10-30) min (elevated heart rate [2]; listed as 6): -0.58 beats per minute per minute | Delay to onset of heart rate decline, ranking (elevated heart rate [2]; FIG. 2): shortest delay | Heart rate decay half-life, ranking (elevated heart rate [2]; FIG. 2): relatively short half-lives | Reduction in heart rate offset (elevated heart rate [2]; FIGS. 3 and 4): dramatic reduction in heart rate offset | Change in Heart Rate (peak minus baseline) (elevated heart rate [2]; listed as 5): 53 bpm | Peak Heart Rate (elevated heart rate [2]; listed as 5): 119 bpm | Change in Heart Rate (peak minus baseline) (elevated heart rate [2]; listed as 6): 33 bpm | Peak Heart Rate (elevated heart rate [2]; listed as 6): 121 bpm | Total time (startup) thru offset plateau: w/in 20 bpm of baseline (elevated heart rate [2]; Table IV): 34 min | Total time (startup) thru offset plateau: reached baseline (elevated heart rate [2]; Table IV, listed as 5): 60 min | Total time (startup) thru offset plateau: reached baseline (elevated heart rate [2]; Table IV, listed as 6): 30 min | Onset Slope (elevated heart rate [2]; listed as 5): 4.70 beats per minute per minute | Onset Slope (elevated heart rate [2]; listed as 6): 3.50 beats per minute per minute | Offset time (elevated heart rate [2]; listed as 5): 34.00 min | Offset time (elevated heart rate [2]; listed as 6): 8.00 min | Offset Slope (elevated heart rate [2]; listed as 5): -1.00 beats per minute per minute | Offset Slope (elevated heart rate [2]; listed as 6): -3.20 beats per minute per minute | Delay (elevated heart rate [2]; listed as 5): 2.00 min | Delay (elevated heart rate [2]; listed as 6): 4.00 min | t 1/2 of elevated heart rate decay (elevated heart rate [2]; Table IV, listed as 5): 14.06 min | t 1/2 of elevated heart rate decay (elevated heart rate [2]; Table IV, listed as 6): 6.77 min | Reduction in offset time (elevated heart rate [2]; iontophoretic pre-delivery): found effective when pre-delivered iontophoretically; also recorded: significant reduction in offset time | Onset time (elevated heart rate [2]; listed as 5): 10.00 min | Onset time (elevated heart rate [2]; listed as 6): 7.00 min | Time Start Decline (elevated heart rate [2]; listed as 5): 20.00 min | Time Start Decline (elevated heart rate [2]; listed as 6): 21.00 min | Dermal clearance enhancement (elevated heart rate [2]; topical pretreatment): no measurable dermal clearance enhancement | CHANGE IN HEART RATE, Mean (elevated heart rate [3]; Table VII, mean of runs): 80.64 BPM | DELAY TIME, Mean (elevated heart rate [3]; Table VII, mean of runs): 2.76 min | HALF-LIFE, Mean (elevated heart rate [3]; Table VII, mean of runs): 16.35 min | TIME TO REACH 10% DECLINE IN HEART RATE, Mean (elevated heart rate [3]; Table VII, mean of runs): 6.44 min | TIME TO REACH 20% DECLINE IN HEART RATE, Mean (elevated heart rate [3]; Table VII, mean of runs): 9.83 min | TIME TO REACH 30% DECLINE IN HEART RATE, Mean (elevated heart rate [3]; Table VII, mean of runs): 13.40 min | TIME TO REACH 40% DECLINE IN HEART RATE, Mean (elevated heart rate [3]; Table VII, mean of runs): 18.38 min | TIME TO REACH 50% DECLINE IN HEART RATE, Mean (elevated heart rate [3]; Table VII, mean of runs): 27.16 min | CHANGE IN HEART RATE (elevated heart rate [3]; [4]): 53.00 BPM and 101.93 BPM and 80.67 BPM and 84.26 BPM and 93.54 BPM and 69.23 BPM and 92.75 BPM and 67.50 BPM and 97.31 BPM and 84.22 BPM and 64.17 BPM and 87.58 BPM and 72.15 BPM | DELAY TIME (elevated heart rate [3]; [4]): 2.00 min and 5.28 min and 0.67 min and 1.33 min and 1.77 min and 5.27 min and 1.81 min and 0.39 min and 0.00 min and 0.22 min and 4.43 min and 8.02 min and 4.65 min | TIME TO REACH 10% DECLINE IN HEART RATE (elevated heart rate [3]; [4]): 7.24 min and 9.14 min and 2.56 min and 9.27 min and 4.71 min and 8.58 min and 4.56 min and 4.31 min and 2.17 min and 4.63 min and 6.46 min and 9.64 min and 10.49 min | TIME TO REACH 20% DECLINE IN HEART RATE (elevated heart rate [3]; [4]): 8.85 min and 12.89 min and 4.46 min and 15.49 min and 7.55 min and 12.60 min and 10.28 min and 12.20 min and 4.12 min and 7.66 min and 8.49 min and 11.25 min and 11.90 min | TIME TO REACH 30% DECLINE IN HEART RATE (elevated heart rate [3]; [4]): 10.45 min and 16.35 min and 6.18 min and 20.96 min and 10.17 min and 19.78 min and 19.70 min and 14.89 min and 7.47 min and 11.55 min and 10.55 min and 12.87 min and 13.30 min | TIME TO REACH 40% DECLINE IN HEART RATE (elevated heart rate [3]; [4]): 12.29 min and 19.40 min and 7.61 min and 26.43 min and 14.58 min and 30.11 min and 28.29 min and 17.58 min and 12.20 min and 26.06 min and 12.63 min and 16.89 min and 14.83 min | TIME TO REACH 50% DECLINE IN HEART RATE (elevated heart rate [3]; [4]): 19.86 min and 22.45 min and 9.04 min and 31.33 min and 21.82 min and 35.27 min and 60.00 min and 20.27 min and 19.92 min and 66.00 min and 14.68 min and 20.44 min and 18.05 min | HALF-LIFE (elevated heart rate [3]; heart rate decline, Table VII, single dog run, listed as 1% Tolazoline): 5.75 min and 10.87 min and 20.60 min and 12.81 min and 18.60 min and 18.02 min and 11.30 min | response in screening study (elevated heart rate [3]; two dogs per treatment): most pronounced response
